Test results from US11434222B2, “MAGL inhibitors” (H. LUNDBECK A/S, priority 2020, dated 2022).
Where two headings read alike, the source gives them in different places.

What was measured:
[1] = test system: tonic hind limb extensor seizure (MEST); assay: Maximal electroshock seizure threshold (MEST) model in the rat; type: in vivo; details: 10 mg/kg p.o., 240 min pre-treatment, FIG. 3 and FIG. 4
Method: In the MEST model, a low-intensity electrical current of high frequency and short duration is applied to induce tonic convulsions.
Animals were randomly assigned to vehicle, compound treatment or Lamotrigine dose groups. Animals were dosed at 5 mL/kg according to treatment groups (n=12 or 16/group), with either vehicle (0.5% MC) p.o. for Example 6, vehicle (10% HP-b-CD) for Example 8, test compound at 10 mg/kg p.o. 240 min pre-treatment time, or Lamotrigine p.o. 360 min pre-treatment time.
Rats were individually assessed for production of a tonic hind limb extensor seizure following a single corneally delivered electroshock of 0.3 second duration, using an ‘up and down method’ of shock titration (Kimball A W et al., 1957). Thus, the first rat within a treatment group was given a shock at the expected or estimated CC50 current (current producing tonic hind limb extensor seizures in 50% of animals). […] This procedure was continued for all rats within a treatment group. Induction of seizure was measured as an all-or-nothing effect scored as either present (+) or absent (0) for each animal. […]
Significant differences between drug-treated animals and controls were assessed according to Litchfield and Wilcoxon (1949) or One-Way ANOVA followed by Dunnett's multiple comparisons test.

[2] = test system: kainic acid induced seizures; assay: Kainic acid seizure model in the rat; type: in vivo; details: for anticonvulsant effects in the kainic acid seizure test: rat; for magnitude of the effects in the kainic acid seizure test compared with reference: middle-high doses, reference Diazepam 16 mg/kg p.o.
Method: Kainic acid is an analog of the excitatory neurotransmitter, glutamate and acts as an agonist of kainic acid receptors. After systemic injection, kainic acid induces prolonged excitatory responses with many of the features of human temporal lobe epilepsy.
Rats, placed in individual Plexiglas cages (33×21×18 cm), are injected with kainic acid (20 mg/kg i.p.). The occurrences of the following symptoms are noted over a 120-minute period 30 minutes after kainic acid injection: forelimb clonus, rearings and rearings with falling, clonic convulsions, tonic convulsions and death. The presence of each symptom and the latencies to the first appearance of the symptoms are measured. The number of forelimb clonus is counted.
12 rats are studied per group. The test is performed partially blind.
The test substances will be evaluated at multiple doses, administered p.o. 240 minutes before the test, and compared with the corresponding vehicle control group (Group 2, administered with 10% HP-b-CD in distilled water, p.o. 240 minutes before the test).
Example 6 was evaluated at 0.3, 1, 3 and 10 mg/kg, and Example 8 was evaluated at 1, 3 and 10 mg/kg, administered p.o. 4 hours before the test, and compared with a vehicle control group (administered with 10% HP-b-CD, p.o. 4 hours before the test).
Diazepam (16 mg/kg) used as reference substance, was administered p.o. 60 minutes before the test (0.5% HP-b-CD) and was compared with vehicle controls.
Quantitative data (latencies) with the test substance was analyzed by comparing treated groups with vehicle control using Kruskal-Wallis test followed by Mann-Whitney U test. Quantitative data with the reference substance will be analysed using Mann-Whitney U test.
Quantal data (frequencies) were analyzed by comparing treated groups with vehicle control using Fisher's Exact Probability tests.

[3] = Rat Kp, brain disposition after oral gavage; type: in vivo; details: for Total plasma concentration / Total blood concentration / Total brain concentration: 5 mg/kg oral gavage; for Total plasma concentration / Kp at 4 h / Kp uu at 4 h: 4 h; for Total plasma concentration: calculated from total blood concentration using blood to plasma ratio; for Total blood concentration / Total brain concentration: 4 h post dosing, mean n = 3; for Kp at 4 h / Kp uu at 4 h: male, Sprague-Dawley, po, 5 mg/kg p.o.; for Kp at 4 h: total brain concentration:total plasma concentration ratio; for Kp uu at 4 h: unbound brain concentration:unbound plasma concentration ratio
Method: (§1) Brain disposition was evaluated in male Sprague-Dawley rats (n=3, standard body weight). Briefly, test compound was formulated as a simple suspension, in 0.5% HPMC in water, then administered by oral gavage (5 mg/kg, 5 mL/kg). Four hours post dosing, rats were sacrificed, and terminal blood and brain samples were taken. Blood was obtained via cardiac puncture (0.1 mL) and was added into 0.4 mL CH3CN for precipitation immediately. The samples were stored at −75+/−15° C. prior to analysis. Brain tissue samples were collected after animals were fully exsanguinated, and the tissues were washed with cold saline quickly. After sectioning, brain sections were immediately frozen in liquid nitrogen and stored at −75+/−15° C. prior to analysis. Blood and brain samples were analyzed by LC/MS/MS using an optimized analytical method. Concentrations of test compound in blood and brain were quantified against matrix matched calibration standards. The total blood, plasma, and brain concentration data are presented in Table 2 alongside the calculated brain Kp (total brain concentration:total plasma concentration ratio), the calculated brain kp,uu (unbound brain concentration:unbound plasma concentration ratio), the free fractions in rat plasma and brain, and the in vitro rat blood to plasma distribution profile. The total plasma concentration data were calculated from the total blood concentration data using rat blood to plasma ratio which was measured in vitro (1 μM test compound). For kp,uu determination, the free fraction in rat plasma and brain homogenate were measured in vitro by standard equilibrium dialysis (1 μM test compound and 6 h equilibration against buffer pH 7.4; for rat plasma analysis, 100 mM stock solution of diisopropyl fluorophosphate was added to the pre-warmed rat plasma prior to adding test article).

[4] = Free fraction in rat plasma and brain homogenate by equilibrium dialysis; type: in vitro ADME
Method: as §1

[5] = In vitro rat blood to plasma ratio; type: in vitro ADME; details: 1 μM test compound
Method: as §1

[6] = Kinetic solubility in PBS; type: physicochemical; details: aqueous buffer, kinetic from dmso stock
Procedure, shortened: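 Solubility measured in PBS at pH 2.0 and pH 7.4, in duplicate, starting from 10 mM DMSO stock; shaken 2 h at RT at 1,100 RPM. Filtrate diluted and quantified by LC-MS/MS (positive MRM) against a DMSO standard of known concentration.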

[7] = rat brain homogenate, buffer pH 7.4, read-out: Rat brain free fraction
[8] = rat plasma, buffer pH 7.4, read-out: Rat plasma free fraction
[9] = PBS pH 2.0, RT, read-out: pH 2 Solubility (kinetic)
[10] = PBS pH 7.4, RT, read-out: pH 7.4 Solubility (kinetic)

O=C(NC1CCOCC1)[C@H]1CC12CCN(C(=O)OC(C(F)(F)F)C(F)(F)F)CC2 [Example 8, 1,1,1,3,3,3-hexafluoropropan-2-yl (S)-1-[(oxan-4-yl)carbamoyl]-6-azaspiro[2.5]octane-6-carboxylate]
anticonvulsant activity in the MEST (seizure threshold CC50) [1]: anticonvulsant activity | anticonvulsant effects in the kainic acid seizure test ([2]; dose-range 1-10 mg/kg p.o. 4 hours before the test): clear anticonvulsant effects | magnitude of the effects in the kainic acid seizure test compared with reference [2]: close to those observed with the reference substance, Diazepam | Total plasma concentration [3]: 0.124 µM | Total blood concentration [3]: 0.119 µM | Total brain concentration [3]: 0.255 µM | Kp at 4 h [3]: 2.06 | Kp uu at 4 h [3]: 0.801 | fraction unbound at 6 h, 1 μM [4, 7]: 0.167 | fraction unbound at 6 h, 1 μM [4, 8]: 0.427 | blood plasma ratio at 1 μM [5]: 0.96 | solubility kinetic at 2 h [6, 9]: 308 µM | solubility kinetic at 2 h [6, 10]: 256 µM

O=C(Nc1cccnn1)[C@H]1CC12CCN(C(=O)OC(C(F)(F)F)C(F)(F)F)CC2 [Example 6, 1,1,1,3,3,3-hexafluoropropan-2-yl (S)-1-(pyridazin-3-ylcarbamoyl)-6-azaspiro[2.5]octane-6-carboxylate]
anticonvulsant activity in the MEST (seizure threshold CC50) [1]: anticonvulsant activity | anticonvulsant effects in the kainic acid seizure test ([2]; dose-range 0.3-10 mg/kg p.o. 4 hours before the test): clear anticonvulsant effects | magnitude of the effects in the kainic acid seizure test compared with reference [2]: close to those observed with the reference substance, Diazepam | Total plasma concentration [3]: 0.576 µM | Total blood concentration [3]: 0.415 µM | Total brain concentration [3]: 1.78 µM | Kp at 4 h [3]: 3.09 | Kp uu at 4 h [3]: 2.25 | fraction unbound at 6 h, 1 μM [4, 7]: 0.04 | fraction unbound at 6 h, 1 μM [4, 8]: 0.055 | blood plasma ratio at 1 μM [5]: 0.72 | solubility kinetic at 2 h [6, 9]: 240 µM | solubility kinetic at 2 h [6, 10]: 106 µM
